# From patent US20250188057A1, “NON-AROMATIC CYCLIC-PYRIMIDINE ANALOGS AS GLUCOSYLCERAMIDE SYNTHASE INHIBITORS” (Merck Sharp & Dohme LLC, priority 2022, published 2025)
# Molecular target: glucosylceramide synthase (GCS) (Homo sapiens (Human), UniProt Q16739)
# Assay: UDP-Glo glucosylceramide synthase biochemical assay
# Conditions: endogenous GCS in Golgi preparations isolated from human A375 malignant melanoma skin cells; UDP detection by luminescence
# Description: A UDP-Glo™ glucosylceramide synthase biochemical assay was utilized to evaluate the effect of test compounds on the activity of endogenous levels of GCS enzyme contained within Golgi preparations isolated from human A375 malignant melanoma skin cells. The UDP-Glo™ glucosylceramide synthase assay uses UDP-Glucose as a nucleotide-glycosyl donor and ceramide as substrate acceptor molecules. In the reaction, glucosylceramide synthase (GCS) transfers glucose from UDP-Glucose to ceramide. Glucosylceramide and UDP are released as products.
# Using Promega's UDP-Glo™ Glycosyltransferase assay kit (Promega Corporation, Madison, WI, USA (Promega)), GCS activity was indirectly measured by detecting the amount of UDP produced. An aliquot of GCS enzyme (1.5 μg crude golgi preparation, total protein) and titrated test compound were aliquoted to each well and incubated for 30 minutes at room temperature. […] An equivalent volume of substrate mixture was then added to each well. Following a 20 h incubation at room temperature to allow for GCS turnover of substrate, an equal volume of UDP detection reagent (Promega) was added to each well and incubated for an additional 75 minutes at room temperature to simultaneously convert the accumulated UDP product into ATP and generate light in a luciferase reaction. The generated light was detected using a luminometer. […] luminescence values (RLUs) were normalized to mean “min” and “max” effects, as determined on each plate. “Min” was defined as the mean of the values of the wells treated with vehicle (DMSO) and which represent 0% inhibition; “max” was defined as the mean of the values of the wells treated with a reference inhibitor and which represent the 100% effect. Values for % Emax and EC50 were determined by best-fitting the normalized data to a curve in Activity Base along a four-parameter logistic nonlinear regression (4PL) model (based on the Levenberg-Marquardt algorithm and defined by the equation below): […]
# where: n is 4PMin (bottom of the curve); m is 4PMax (top of the curve); i is IP (inflection point of curve); and p is slope. See Levenberg, K., “A Method for the Solution of Certain Problems in Least Squares”, Quart. Appl. Math. 2, (1944), pp 164-168 and Marquardt, D., “An Algorithm for Least Squares Estimation on Nonlinear Parameters”, SIAM J. Appl. Math 11, (1963) pp 431-441.
# Sequence of glucosylceramide synthase (GCS) (Q16739 whole entry): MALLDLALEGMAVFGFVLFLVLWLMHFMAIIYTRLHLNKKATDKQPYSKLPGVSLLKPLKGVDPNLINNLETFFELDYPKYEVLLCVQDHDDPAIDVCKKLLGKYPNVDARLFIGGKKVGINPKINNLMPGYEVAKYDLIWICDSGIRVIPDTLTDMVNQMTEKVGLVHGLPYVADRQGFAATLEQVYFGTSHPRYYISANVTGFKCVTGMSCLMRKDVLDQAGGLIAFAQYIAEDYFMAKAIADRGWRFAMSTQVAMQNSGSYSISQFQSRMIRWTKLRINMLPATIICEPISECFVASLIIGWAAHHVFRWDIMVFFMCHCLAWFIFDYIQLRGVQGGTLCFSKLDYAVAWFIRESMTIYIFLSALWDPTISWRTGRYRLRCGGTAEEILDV
row,Structure (SMILES),IC50
1,"N#Cc1cnc(C2CC2)nc1NC1CCc2ccc(O)cc21 (stereo not drawn) [Compound 91, 2-cyclopropyl-4-((6-hydroxy-2,3-dihydro-1H-inden-1-yl)amino)pyrimidine-5-carbonitrile]",0.379 µM
2,"N#Cc1cnc(C2CC2)nc1OCC1CCN(c2ccc(Cl)cc2)C1 (stereo not drawn) [Compound 58, 4-((1-(4-chlorophenyl)pyrrolidin-3-yl)methoxy)-2-cyclopropylpyrimidine-5-carbonitrile]",0.156 µM
3,"N#Cc1cnc(C2CC2)nc1OC[C@H]1CCN(c2cc(F)ncc2Cl)C1 [Compound 36, (S)-4-((1-(5-chloro-2-fluoropyridin-4-yl)pyrrolidin-3-yl)methoxy)-2-cyclopropylpyrimidine-5-carbonitrile]",2.57 µM
4,"CC(C)N1C(=O)[C@]2(c3ccsc3)CN(c3nc(C4CC4)ncc3C#N)C[C@@H]2S1(=O)=O [Compound 71, 2-cyclopropyl-4-((3aS,6aR)-2-isopropyl-1,1-dioxido-3-oxo-3a-(thiophen-3-yl)hexahydro-5H-pyrrolo[3,4-d]isothiazol-5-yl)pyrimidine-5-carbonitrile]",0.832 µM
5,"N#Cc1cnc(C2CC2)nc1OC[C@H]1CCN(c2csc3c(Cl)ncnc23)C1 [Compound 39, (S)-4-((1-(4-chlorothieno[3,2-d]pyrimidin-7-yl)pyrrolidin-3-yl)methoxy)-2-cyclopropylpyrimidine-5-carbonitrile]",3.99 µM
6,"OCc1cnc(C2CC2)nc1OC[C@@H]1CN(c2ccc(C(F)(F)F)nc2)CCO1 [Compound 3, (S)-(2-cyclopropyl-4-((4-(6-(trifluoromethyl)pyridin-3-y)morpholin-2-yl)methoxy)pyrimidin-5-yl)methanol]",2.32 µM
7,"N#Cc1cnc(C2CC2)nc1OC[C@H]1C[C@@H]1c1ccc(F)cn1 [Compound 61, 2-cyclopropyl-4-(((1S,2S)-2-(5-fluoropyridin-2-yl)cyclopropyl)methoxy)pyrimidine-5-carbonitrile]",1.03 µM
8,"N#Cc1cnc(C2CC2)nc1N1CCC(N(C2CC2)S(=O)(=O)c2ccccc2)CC1 [Compound 83, N-(1-(5-cyano-2-cyclopropylpyrimidin-4-yl)piperidin-4-yl)-N-cyclopropylbenzenesulfonamide]",1.59 µM
9,"CC(F)(F)c1ccnc(N2CC[C@H](COc3nc(C4CC4)ncc3C#N)C2)c1 [Compound 32, (S)-2-cyclopropyl-4-((1-(4-(1,1-difluoroethyl)pyridin-2-yl)pyrrolidin-3-yl)methoxy)pyrimidine-5-carbonitrile]",3.29 µM
10,"COc1ccc(N2CCC(Oc3nc(C4CC4)ncc3C#N)C2)cc1 (stereo not drawn) [Compound 105, 2-cyclopropyl-4-((1-(4-methoxyphenyl)pyrrolidin-3-yl)oxy)pyrimidine-5-carbonitrile]",0.321 µM

# Compounds with a lower IC50, results first:
row,IC50,Structure (SMILES)
1,0.081 µM,"CC(Oc1nc(C2CC2)ncc1C#N)[C@H]1CCN(c2ncc(C(F)(F)F)cn2)C1 (stereo partly drawn) [Compound 50, 2-cyclopropyl-4-(1-((S)-1-(5-(trifluoromethyl)pyrimidin-2-yl)pyrrolidin-3-yl)ethoxy)pyrimidine-5-carbonitrile]"
2,0.067 µM,"COc1ccc(N2CCC(COc3nc(C4CC4)ncc3C#N)C2)cc1 (stereo not drawn) [Compound 107, 2-cyclopropyl-4-((1-(4-methoxyphenyl)pyrrolidin-3-yl)methoxy)pyrimidine-5-carbonitrile]"
3,0.046 µM,"N#Cc1cnc(C2CC2)nc1NC1CCCc2sc(C3CCC3)nc21 (stereo not drawn) [Compound 96, 4-((2-cyclobutyl-4,5,67-tetrahydrobenzo[d]thiazol-4-yl)amino)-2-cyclopropylpyrimidine-5-carbonitrile]"
4,0.019 µM,"N#Cc1cnc(C2CC2)nc1NC1CCCc2sc(C3CCCC3)nc21 (stereo not drawn) [Compound 95, 4-((2-cyclopentyl-4,5,6,7-tetrahydrobenzo[d]thiazol-4-yl)amino)-2-cyclopropylpyrimidine-5-carbonitrile]"
5,0.0086 µM,"COc1ccc2c(c1)C(Nc1nc(C3CC3)ncc1C#N)CC2 (stereo not drawn) [Compound 63, 2-cyclopropyl-4-((6-methoxy-2,3-dihydro-1H-inden-1-yl)amino)pyrimidine-5-carbonitrile]"
